Experiments:
T. brucei = tested on: T. brucei; set-up: method as in PMID 11302796; settings: cited from earlier work
[1] = tested on: T. b. rhodesiense strain STIB 900, trypomastigotes; experiment: in vitro
Description: (§1) Drug stock solutions (10mg/ml) were in DMSO (100%). […] Selectivity index (SI) was calculated as IC50 L6 cells/IC50 parasite.

L6 cells = experiment: Cytotoxicity on L6 cells; settings: read-out: IC50 Cytotox. L6; L6 cells; means of two independent assays
Description: as §1

[2] = tested on: T. cruzi, strain Tulahuen C4, intracellular amastigotes; experiment: microbe, parasite or virus in culture; settings: read-out: IC50 T. cruzi; strain Tulahuen C4, intracellular amastigotes; means of two independent assays
Description: as §1

[3] = tested on: axenic amastigotes of L. donovani, strain MHOM-ET-67/L82; experiment: In vitro activity against L. donovani axenic amastigotes, serial drug dilution assay; type: cell-based, Leishmania donovani; settings: axenic amastigotes, strain MHOM-ET-67/L82; means of two independent assays; read-out: IC50 L. don. axen.
Description: as §1

[4] = tested on: intracellular amastigotes of L. donovani strain MHOM-ET-67/L82; experiment: Activity against Leishmania donovani intracellular amastigotes in mouse peritoneal macrophages
Method in brief: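 Axenic amastigotes grown at pH 5.4 infected mouse peritoneal macrophages for 4 h before free parasites were washed off. Next day, seven 3-fold drug dilutions (30–0.04 μg/ml) were added for 96 h. Giemsa-stained infected macrophages were counted, burden reduction was taken vs untreated controls, and IC50 came from linear regression.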

P. falciparum strain K1 = experiment: In vitro activity against P. falciparum, serial drug dilution assay; settings: read-out: IC50 P. falc. K1; strain K1; means of two independent assays
Description: as §1

[5] = tested on: macrophages infected with L. donovani; experiment: Cytotoxicity on macrophages infected with L. donovani; type: cell-based, mouse; settings: macrophages infected with L. donovani; read-out: IC50 Cytotox. mac.inf.
Description: After 24 h 1.2 x 10^5 amastigote L. donovani in 100 μl were added. The amastigotes were taken from an axenic culture grown at pH 5.4. Four hours later, the medium containing free amastigote forms was removed and replaced by fresh medium. The next day the medium was replaced by medium with or without a serial drug dilution of seven 3-fold dilution steps covering a range from 30 to 0.04 μg/ml. Parasite growth in the presence of the drug was compared to control wells. After 96 h of incubation, the medium was removed and the slides fixed with methanol for 10 min followed by staining with a 10% Giemsa solution. Infected and non-infected macrophages were counted for the control cultures and those exposed to the serial drug dilutions. The infection rates were determined. The results were expressed as a percentage reduction in parasite burden compared to control wells, and the IC50 was calculated by linear regression analysis.

[6] = tested on: T.b.rhodesiense (STIB900); experiment: T.b.rhodesiense (STIB900) acute mouse model; type: in vivo; settings: daily oral administration of up to 25 mg/kg over a 4 day period, acutely infected mouse model
Description: The STIB900 acute mouse model mimics the first stage of the disease. Four female NMRI mice were used per experimental group. Each mouse was inoculated i.p. with 10^4 bloodstream forms of STIB900, respectively. Heparinized blood from a donor mouse with approximately 5x10^6 /ml parasitaemia was suspended in PSG to obtain a trypanosome suspension of […]. Each mouse was injected with 0.25 ml. Compounds were formulated in 100% DMSO, diluted 10-fold in distilled water. Compound treatment was initiated 3 days post-infection on four consecutive days for all administration routes (i.p., p.o.) in a volume of 0.1 ml/10 g. Three mice served as infected-untreated controls. […] Parasitaemia was monitored using smears of tail-snip blood twice a week after treatment for two weeks followed by once a week until 60 days post-infection. Mice are considered cured when there is no parasitaemia relapse detected in the tail blood over the 60-day observation period. Mean relapse days were determined as day of relapse post-infection of mice.

[7] = set-up: method as in PMID 6813497; settings: cited from earlier work
Entamoeba histolytica = settings: cited from earlier work
[8] = rats, oral single dose 6.7 mg /kg

SMILES: NC1CCC(C23CC4CC(CC(C4)C2)C3)CC1 (stereo not drawn) [1-adamantyl-4-amino-cyclohexane]
- Times more effective than rimantadine (T. brucei): 20 to 25 times

SMILES: CC(=O)OC[C@H]1O[C@@H]([S-])[C@H](OC(C)=O)[C@@H](OC(C)=O)[C@@H]1OC(C)=O.CCP(CC)CC.[Au+] [Auranofin]
- Selectivity index: IC50 Cytotoxicity L6/ IC50 T. b. rhodesiense [1]: 479
- IC50 ([1]; read-out: IC50 T. b. rhod., strain STIB 900, trypomastigotes, means of two independent assays): 0.01 µM
- IC50 (L6 cells): 4.79 µM
- IC50 [2]: 2.27 µM
- IC50 [3]: 0.11 µM
- Activity against intracellular amastigotes at a fixed concentration [4]: did not exhibit activity
- IC50 ([4]; read-out: IC50 L. don. intracell, intracellular amastigotes in mouse peritoneal macrophages, strain MHOM-ET-67/L82, 96 h): > 1.47 µM
- IC50 (P. falciparum strain K1): 1.67 µM
- IC50 [5]: 4.42 µM
- In vivo efficacy (reduction of parasitemia or increased survival time) [6]: no in vivo efficacy was observed
- Bioavailability [7]: 17–23%
- Terminal half-life based on blood levels [7, 8]: 29 h
- Terminal half-life based on serum levels [7, 8]: 43 h
- Times better activity against Entamoeba histolytica than the standard drug metronidazole (Entamoeba histolytica): 10 times
